Laboratory results: ChEMBL document CHEMBL5236598, “Lead Optimization and Avoidance of Metabolic-perturbing Motif Developing Novel Diarylpyrimidines as Potent HIV-1 NNRTIs” (J Med Chem, 2022)

Experiments:
[1] = Half life in ICR mouse at 2 mg/kg, iv measured for 12 hrs by LC-MS/MS analysis; type: ADME, organism-based; settings: in vivo
[2] = AUC (0 to t) in ICR mouse at 10 mg/kg, po measured for 12 hrs by LC-MS/MS analysis; type: ADME, organism-based; set-up: dose 10 mg/kg, time 12 hrs, route po; settings: in vivo
[3] = Subacute toxicity in Kunming mouse assessed as appearance of lesions in liver at 50 mg/kg/day, po administered for 2 weeks; type: organism-based; settings: in vivo, 336 h
[4] = Subacute toxicity in Kunming mouse assessed as abnormalities in spleen at 50 mg/kg/day, po administered for 2 weeks; type: organism-based; settings: in vivo, 336 h
[5] = Metabolic stability in human liver microsomes assessed as parent compound remaining preincubated for 10 mins followed by NADPH regenerating system addition and measured after 60 mins by LC-MS/MS analysis; type: ADME, Microsome; settings: time 70 min, read-out: Stability
[6] = Subacute toxicity in Kunming mouse assessed as appearance of lesions in lungs at 50 mg/kg/day, po administered for 2 weeks; type: organism-based; settings: in vivo, 336 h
[7] = Subacute toxicity in Kunming mouse assessed as anorexia at 50 mg/kg/day, po administered for 2 weeks; type: organism-based; settings: in vivo, 336 h
[8] = Subacute toxicity in Kunming mouse assessed as appearance of lesions in kidneys at 50 mg/kg/day, po administered for 2 weeks; type: organism-based; settings: in vivo, 336 h
[9] = Acute toxicity in Kunming mouse assessed as change in body weight at 2000 mg/kg, po administered for 7 days; type: organism-based; settings: in vivo, 168 h, time 7 day
[10] = Subacute toxicity in Kunming mouse assessed as abnormalities in kidneys at 50 mg/kg/day, po administered for 2 weeks; type: organism-based; settings: in vivo, 336 h
[11] = Subacute toxicity in Kunming mouse assessed as abnormalities in lungs at 50 mg/kg/day, po administered for 2 weeks; type: organism-based; settings: in vivo, 336 h
[12] = Subacute toxicity in Kunming mouse assessed as abnormalities in liver at 50 mg/kg/day, po administered for 2 weeks; type: organism-based; settings: in vivo, 336 h
[13] = Subacute toxicity in Kunming mouse assessed as signs of toxicity at 50 mg/kg/day, po administered for 2 weeks; type: organism-based; settings: in vivo, 336 h
[14] = Tmax in ICR mouse at 2 mg/kg, iv measured for 12 hrs by LC-MS/MS analysis; type: ADME, organism-based; settings: in vivo
[15] = Subacute toxicity in Kunming mouse assessed as appearance of lesions in heart at 50 mg/kg/day, po administered for 2 weeks; type: organism-based; settings: in vivo, 336 h
[16] = Acute toxicity in Kunming mouse assessed as abnormal behaviour at 2000 mg/kg, po administered for 7 days; type: organism-based; settings: in vivo, 168 h, time 7 day
[17] = AUC (0 to t) in ICR mouse at 2 mg/kg, iv measured for 12 hrs by LC-MS/MS analysis; type: ADME, organism-based; set-up: dose 2 mg/kg, time 12 hrs, route iv; settings: in vivo
[18] = Subacute toxicity in Kunming mouse assessed as lethargy at 50 mg/kg/day, po administered for 2 weeks; type: organism-based; settings: in vivo, 336 h
[19] = Subacute toxicity in Kunming mouse assessed as appearance of lesions in spleen at 50 mg/kg/day, po administered for 2 weeks; type: organism-based; settings: in vivo, 336 h
[20] = Subacute toxicity in Kunming mouse assessed as ruffled fur at 50 mg/kg/day, po administered for 2 weeks; type: organism-based; settings: in vivo, 336 h
[21] = AUC (0 to infinity) in ICR mouse at 2 mg/kg, iv measured for 12 hrs by LC-MS/MS analysis; type: ADME, organism-based; set-up: dose 2 mg/kg, time 12 hrs, route iv; settings: in vivo
[22] = Metabolic stability in human liver microsomes assessed as intrinsic clearance preincubated for 10 mins followed by NADPH regenerating system addition and measured after 2 hrs by LC-MS/MS analysis; type: ADME, Microsome; settings: time 130 min, read-out: CLH
[23] = AUC (0 to infinity) in ICR mouse at 10 mg/kg, po measured for 12 hrs by LC-MS/MS analysis; type: ADME, organism-based; set-up: time 12 hrs, dose 10 mg/kg, route po; settings: in vivo
[24] = Clearance in ICR mouse at 2 mg/kg, iv measured for 12 hrs by LC-MS/MS analysis; type: ADME, organism-based; settings: in vivo
[25] = Half life in ICR mouse at 10 mg/kg, po measured for 12 hrs by LC-MS/MS analysis; type: ADME, organism-based; settings: in vivo
[26] = Cmax in ICR mouse at 10 mg/kg, po measured for 12 hrs by LC-MS/MS analysis; type: ADME, organism-based; set-up: time 12 hrs, dose 10 mg/kg, route po; settings: in vivo
[27] = Cmax in ICR mouse at 2 mg/kg, iv measured for 12 hrs by LC-MS/MS analysis; type: ADME, organism-based; set-up: time 12 hrs, dose 2 mg/kg, route iv; settings: in vivo
[28] = Tmax in ICR mouse at 10 mg/kg, po measured for 12 hrs by LC-MS/MS analysis; type: ADME, organism-based; settings: in vivo
[29] = Metabolic stability in human liver microsomes assessed as half life preincubated for 10 mins followed by NADPH regenerating system addition and measured after 2 hrs by LC-MS/MS analysis; type: ADME, Microsome; settings: time 130 min
[30] = Subacute toxicity in Kunming mouse assessed as abnormalities in heart at 50 mg/kg/day, po administered for 2 weeks; type: organism-based; settings: in vivo, 336 h
[31] = Aqueous solubility of compound at pH 7.4 at 0.1 to 10 mg; type: physicochemical; settings: aqueous medium, dose 0.1-10 mg
[32] = Aqueous solubility of compound at pH 7 at 0.1 to 10 mg; type: physicochemical; settings: aqueous medium, dose 0.1-10 mg
[33] = Aqueous solubility of compound at pH 2 at 0.1 to 10 mg; type: physicochemical; settings: aqueous medium, dose 0.1-10 mg
[34] = Oral bioavailability in ICR mouse at 10 mg/kg measured for 12 hrs by LC-MS/MS analysis; type: ADME, organism-based; settings: in vivo
[35] = Subacute toxicity in Kunming mouse assessed as clonic convulsion at 50 mg/kg/day, po administered for 2 weeks; type: organism-based; settings: in vivo, 336 h

Compound: Cc1cc(/C=C/C#N)cc(C)c1Oc1nc(Nc2ccc(C#N)c(F)c2)nc2c1COC2.Cl
- half-life [1]: 85.8 min
- AUC(0-t) at 12 h [2]: 0.107 µg·h/mL
- Activity [3]: Non-Toxic
- Activity [4]: Non-Toxic
- remaining at 1 h [5]: 5%
- Activity [6]: Non-Toxic
- Activity [7]: Non-Toxic
- Activity [8]: Non-Toxic
- Activity [9]: Non-Toxic
- Activity [10]: Non-Toxic
- Activity [11]: Non-Toxic
- Activity [12]: Non-Toxic
- Activity [13]: Non-Toxic
- Tmax [14]: 0 h
- Activity [15]: Non-Toxic
- Activity [16]: Non-Toxic
- AUC(0-t) at 12 h [17]: 0.25 µg·h/mL
- Activity [18]: Non-Toxic
- Activity [19]: Non-Toxic
- Activity [20]: Non-Toxic
- AUC [21]: 0.255 µg·h/mL
- microsomal CLint [22]: 87.6 µL/min/mg
- AUC(0-inf) [23]: 0.154 µg·h/mL
- CL [24]: 103 L/h/kg
- half-life [25]: 307 min
- Cmax [26]: 0.0375 µg/mL
- Cmax [27]: 0.484 µg/mL
- Tmax [28]: 15 min
- half-life [29]: 11.3 min
- Activity [30]: Non-Toxic
- solubility [31]: 0.0389 mg/mL
- solubility [32]: 0.149 mg/mL
- solubility [33]: 0.349 mg/mL
- bioavailability [34]: 12.1%
- Activity [35]: Non-Toxic
